Source: patent US20110111016A1, “NON-DNA BASE-CONTAINING POLYNUCLEOTIDE COMPOSITIONS AND THEIR USE FOR THE MODULATION OF IMMUNE RESPONSES” (priority 2009, published 2011)

What was measured:
Format in all cases: cell-based
[1] = biological target: T1, human TLR9 (Homo sapiens, UniProt Q9NR96); experiment: NF-κB activation (secreted alkaline phosphatase reporter) in HEK293 cells expressing human TLR9; conditions: HEK293/hTLR9 cell line; at 100 ng/mL; 16-20 hours
T1 construct: host or cells: HEK293
T1 sequence (Q9NR96 26-1032): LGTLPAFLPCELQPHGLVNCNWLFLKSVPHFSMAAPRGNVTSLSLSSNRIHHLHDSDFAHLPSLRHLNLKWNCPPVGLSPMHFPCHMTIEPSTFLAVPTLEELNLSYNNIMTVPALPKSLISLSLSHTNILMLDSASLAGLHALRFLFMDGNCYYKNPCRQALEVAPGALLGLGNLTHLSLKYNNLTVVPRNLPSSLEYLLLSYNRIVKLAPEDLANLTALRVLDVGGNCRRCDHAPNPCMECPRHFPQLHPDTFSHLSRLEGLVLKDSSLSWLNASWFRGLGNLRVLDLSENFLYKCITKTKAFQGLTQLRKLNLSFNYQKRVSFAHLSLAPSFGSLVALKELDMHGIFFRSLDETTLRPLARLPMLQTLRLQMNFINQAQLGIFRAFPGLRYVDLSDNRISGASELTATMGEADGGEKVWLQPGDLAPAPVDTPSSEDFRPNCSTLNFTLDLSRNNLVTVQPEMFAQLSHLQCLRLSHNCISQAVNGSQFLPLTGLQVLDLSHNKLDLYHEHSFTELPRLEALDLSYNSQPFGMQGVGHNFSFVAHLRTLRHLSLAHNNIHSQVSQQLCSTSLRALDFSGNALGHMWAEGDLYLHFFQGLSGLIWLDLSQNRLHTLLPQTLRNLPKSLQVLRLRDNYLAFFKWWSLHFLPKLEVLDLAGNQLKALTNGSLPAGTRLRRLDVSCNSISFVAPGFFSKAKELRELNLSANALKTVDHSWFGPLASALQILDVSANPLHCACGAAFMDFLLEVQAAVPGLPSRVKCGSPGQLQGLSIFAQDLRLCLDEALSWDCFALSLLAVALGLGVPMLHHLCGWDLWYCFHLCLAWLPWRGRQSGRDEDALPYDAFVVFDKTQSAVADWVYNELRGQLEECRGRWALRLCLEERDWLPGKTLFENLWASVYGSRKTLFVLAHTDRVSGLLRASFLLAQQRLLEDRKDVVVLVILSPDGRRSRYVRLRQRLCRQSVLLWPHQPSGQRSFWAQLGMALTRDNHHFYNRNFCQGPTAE
Protocol: Toll-like receptors (TLR) are known to interact with a number of natural and synthetic molecules that can function as immune adjuvants. Examples of these molecules are Poly (I:C) polynucleotides, lipopolysaccharide and CpG-containing polynucleotides. The interaction of non-DNA base-containing polynucleotides (SEQ ID NOs: 1-3) to interact with TLR and induce down-stream signaling was tested by assessing NF-κB activation in HEK293 cells expressing human TLR2, 3, 4, 5, 7, 8 and 9. TLR engagement was determined by measurement of secreted alkaline phosphatase, under the control of a reporter inducible by NF-κB. Appropriate positive controls were used for each TLR. […] HEK293 cells containing the appropriate TLR and NF-κB reporting system (InvivoGen, San Diego, Calif., USA) were placed in wells of 96 well plates (25,000-50,000 cells, in a final volume of 200 μL medium designed for the detection of NF-κB induced secreted alkaline phosphatase expression), and incubated with non-DNA base-containing polynucleotides or positive controls for 16-20 hours. TLR activating activity was determined by measurement of absorbance at 650 nm wavelength using a Coulter AD340C absorbance detector. The results shown are expressed as Optical Density (OD).

[2] = test system: human PBMC; experiment: Induction of cytokines from human PBMC (ELISA cytokine capture assay); conditions: PBMC of 3 healthy adults, 48 h; increase two-fold that of background control; SEQ ID NOs 1-3 100 μg/mL, CpG 2006 and MCC 1-100 μg/mL, LPS 10 μg/mL
Text: A number of immune adjuvants are known to be capable of eliciting cytokines from human PBMC cells. Examples of such adjuvants are alum, lipopolysaccharide, monophosphoryl lipid A, CpG-containing polynucleotides and non-CpG-containing ODN's, as well as mycobacterial cell wall-DNA complex (MCC). […] PBMC were isolated from whole blood using standard Ficoll-Paque (GE Healthcare Life Sciences, Baie d'Urfé, QC, Canada) gradient centrifugation, and placed in tissue culture plates at a concentration of 10^6 cells/mL (total volume: 1 mL in RPMI 1640 medium containing 10% heat-inactivated FBS, both from Wisent, St-Bruno, QC, Canada) and 50 μg/mL gentamycin sulfate (Sigma-Aldrich Canada, Oakville, ON, Canada). SEQ ID NOs: 1, 2 or 3 were added to give a final concentration of 100 μg/mL, and the cells were cultivated for 48 h. Cytokines (IL-1β, IL-2, IL-6, IL-10 and IL-12p40) in the supernatant at the end of incubation were determined by ELISA using a cytokine capture assay process (Biosource, Camarillo, Calif.). SEQ ID NO: 32 CpG 2006 ODN (1-100 μg/mL, 5′-[…]-3′, […]), MCC (1-100 μg/mL) and LPS (10 μg/mL) were used as positive controls.

[3] = test system: NF-κB control cells; experiment: NF-κB reporter control cells (secreted alkaline phosphatase); conditions: at 100 ng/mL, 16-20 hours
Protocol: (§1) Toll-like receptors (TLR) are known to interact with a number of natural and synthetic molecules that can function as immune adjuvants. Examples of these molecules are Poly (I:C) polynucleotides, lipopolysaccharide and CpG-containing polynucleotides. The interaction of non-DNA base-containing polynucleotides (SEQ ID NOs: 1-3) to interact with TLR and induce down-stream signaling was tested by assessing NF-κB activation in HEK293 cells expressing human TLR2, 3, 4, 5, 7, 8 and 9. TLR engagement was determined by measurement of secreted alkaline phosphatase, under the control of a reporter inducible by NF-κB. Appropriate positive controls were used for each TLR. The non-DNA base-containing polynucleotides were dissolved in sterile water at a concentration of 100 μg/mL, and used at a final concentration of 10 μg/mL. HEK293 cells containing the appropriate TLR and NF-κB reporting system (InvivoGen, San Diego, Calif., USA) were placed in wells of 96 well plates (25,000-50,000 cells, in a final volume of 200 μL medium designed for the detection of NF-κB induced secreted alkaline phosphatase expression), and incubated with non-DNA base-containing polynucleotides or positive controls for 16-20 hours. TLR activating activity was determined by measurement of absorbance at 650 nm wavelength using a Coulter AD340C absorbance detector. The results shown are expressed as Optical Density (OD).

[4] = biological target: T2, human TLR3 (Homo sapiens, UniProt O15455); experiment: NF-κB activation (secreted alkaline phosphatase reporter) in HEK293 cells expressing human TLR3; conditions: HEK293/hTLR3 cell line; at 1 μg/mL; 16-20 hours
T2 construct: host or cells: HEK293
T2 sequence (O15455 24-904): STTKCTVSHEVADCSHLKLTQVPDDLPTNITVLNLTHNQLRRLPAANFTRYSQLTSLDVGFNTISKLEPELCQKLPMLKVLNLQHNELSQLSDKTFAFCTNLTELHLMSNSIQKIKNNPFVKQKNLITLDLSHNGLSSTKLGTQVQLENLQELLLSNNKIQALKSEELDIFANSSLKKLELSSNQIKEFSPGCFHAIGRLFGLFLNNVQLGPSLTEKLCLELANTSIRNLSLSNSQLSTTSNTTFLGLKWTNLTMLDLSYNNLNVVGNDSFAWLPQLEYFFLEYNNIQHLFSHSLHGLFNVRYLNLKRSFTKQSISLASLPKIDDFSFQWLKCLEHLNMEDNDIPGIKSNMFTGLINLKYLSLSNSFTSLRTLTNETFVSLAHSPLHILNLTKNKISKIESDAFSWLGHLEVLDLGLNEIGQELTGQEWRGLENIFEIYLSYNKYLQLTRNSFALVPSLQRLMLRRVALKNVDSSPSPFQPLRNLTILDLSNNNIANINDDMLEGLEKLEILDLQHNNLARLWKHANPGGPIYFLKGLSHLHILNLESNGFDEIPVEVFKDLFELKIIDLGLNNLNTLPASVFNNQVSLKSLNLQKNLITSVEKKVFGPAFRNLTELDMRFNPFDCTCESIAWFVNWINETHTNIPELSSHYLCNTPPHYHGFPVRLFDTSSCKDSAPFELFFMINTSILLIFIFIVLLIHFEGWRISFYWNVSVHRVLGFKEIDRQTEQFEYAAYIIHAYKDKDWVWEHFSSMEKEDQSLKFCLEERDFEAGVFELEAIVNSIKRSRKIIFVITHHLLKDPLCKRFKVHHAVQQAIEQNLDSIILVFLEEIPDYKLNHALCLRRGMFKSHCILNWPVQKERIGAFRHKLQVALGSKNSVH
Protocol: as §1

[5] = biological target: T3, human TLR5 (Homo sapiens, UniProt O60602); experiment: NF-κB activation (secreted alkaline phosphatase reporter) in HEK293 cells expressing human TLR5; conditions: HEK293/hTLR5 cell line; at 100 ng/mL; 16-20 hours
T3 construct: host or cells: HEK293
T3 sequence (O60602 21-858): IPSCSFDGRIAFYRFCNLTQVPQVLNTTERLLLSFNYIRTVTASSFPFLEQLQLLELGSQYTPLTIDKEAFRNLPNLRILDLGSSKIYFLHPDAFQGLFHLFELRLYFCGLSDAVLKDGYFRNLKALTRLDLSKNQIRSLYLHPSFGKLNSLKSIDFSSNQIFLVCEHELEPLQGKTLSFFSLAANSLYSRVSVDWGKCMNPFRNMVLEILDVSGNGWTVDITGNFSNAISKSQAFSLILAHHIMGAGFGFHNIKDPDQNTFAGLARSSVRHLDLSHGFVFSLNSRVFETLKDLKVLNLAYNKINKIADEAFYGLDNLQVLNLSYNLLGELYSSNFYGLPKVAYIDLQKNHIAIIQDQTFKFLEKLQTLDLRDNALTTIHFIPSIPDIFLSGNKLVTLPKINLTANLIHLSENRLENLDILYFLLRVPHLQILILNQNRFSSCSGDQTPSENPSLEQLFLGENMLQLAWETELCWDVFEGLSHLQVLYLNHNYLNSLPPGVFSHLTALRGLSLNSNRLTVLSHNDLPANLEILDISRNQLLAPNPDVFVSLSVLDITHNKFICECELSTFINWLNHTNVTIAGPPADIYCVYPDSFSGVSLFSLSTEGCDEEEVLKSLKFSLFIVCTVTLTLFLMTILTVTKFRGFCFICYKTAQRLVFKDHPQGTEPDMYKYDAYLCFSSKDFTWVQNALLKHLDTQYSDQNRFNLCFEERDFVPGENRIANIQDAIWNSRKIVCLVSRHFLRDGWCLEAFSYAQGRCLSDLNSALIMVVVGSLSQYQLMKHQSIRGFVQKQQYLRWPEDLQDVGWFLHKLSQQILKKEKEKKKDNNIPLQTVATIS
Protocol: as §1

“5′-TCGTCGTTTTGTCGTTTTGTCGTT-3′ [SEQ ID NO: 32 CpG 2006, reference compound]” was tested, and the “TLR activation, Optical Density at 650 nm, hTLR9, positive control” value [1] was 1.904, the “Number of individuals responding, IL-1β” value [2] was 0/3 and the “Number of individuals responding, IL-2” value [2] was 0/3. For the same molecule, the “Number of individuals responding, IL-6” value [2] was 3/3, the “Number of individuals responding, IL-10” value [2] was 2/3 and the “Number of individuals responding, IL-12p40” value [2] was 1/3.

In the case of `CCCCCCCCCCCCCC(=O)O[C@@H]1[C@@H](C)[C@@]2(O)[C@@H](C=C(CO)C[C@]3(O)C(=O)C(C)=C[C@@H]23)[C@@H]2C(C)(C)[C@]12OC(C)=O` [PMA, reference compound], the “Optical Density at 650 nm, NF-κB control cells, positive control” value [3] is reported as 2.765.

In the case of Poly (I:C) [reference compound], the “TLR activation, Optical Density at 650 nm, hTLR3, positive control” value [4] is reported as 2.547.

B1: S. typhimurium flagellin: hTLR5 positive control (protein)
chain: AQVINTNSLSLLTQNNLNKSQSALGTAIERLSSGLRINSAKDDAAGQAIANRFTANIKGLTQASRNANDGISIAQTTEGALNEINNNLQRVRELAVQSANSTNSQSDLDSIQAEITQRLNEIDRVSGQTQFNGVKVLAQDNTLTIQVGANDGETIDIDLKQINSQTLGLDTLNVQQKYKVSDTAATVTGYADTTIALDNSTFKASATGLGGTDQKIDGDLKFDDTTGKYYAKVTVTGGTGKDGYYEVSVDKTNGEVTLAGGATSPLTGGLPATATEDVKNVQVANADLTEAKAALTAAGVTGTASVVKMSYTDNNGKTIDGGLAVKVGDDYYSATQNKDGSISINTTKYTADDGTSKTALNKLGGADGKTEVVSIGGKTYAASKAEGHNFKAQPDLAEAAATTTENPLQKIDAALAQVDTLRSDLGAVQNRFNSAITNLGNTVNNLTSARSRIEDSDYATEVSNMSRAQILQQAGTSVLAQANQVPQNVLSLLR
In the case of B1, the “TLR activation, Optical Density at 650 nm, hTLR5, positive control” value [5] is reported as 2.593.
